Experimental data as given in US20230066011A1, “PYRROLOPYRIMIDINE DERIVATIVE, AND PHARMACEUTICAL COMPOSITION FOR PREVENTING OR TREATING PROTEIN KINASE-RELATED DISEASE COMPRISING SAME AS ACTIVE INGREDIENT” (VORONOI CO., LTD., priority 2019, published 2023).

Columns and labels:
Type in all cases: biochemical
LRRK2 (G2019S) = LRRK2 (G2019S) (Homo sapiens, UniProt Q5S007, G2019S); assay: LRRK2 G2019S enzyme inhibition, ADP-Glo kinase assay; parameters: purchased SignalChem L10-12GG; details: ATP 25 μM
LRRK2 (G2019S), sequence (Q5S007 970-2527 G2019S limits assumed): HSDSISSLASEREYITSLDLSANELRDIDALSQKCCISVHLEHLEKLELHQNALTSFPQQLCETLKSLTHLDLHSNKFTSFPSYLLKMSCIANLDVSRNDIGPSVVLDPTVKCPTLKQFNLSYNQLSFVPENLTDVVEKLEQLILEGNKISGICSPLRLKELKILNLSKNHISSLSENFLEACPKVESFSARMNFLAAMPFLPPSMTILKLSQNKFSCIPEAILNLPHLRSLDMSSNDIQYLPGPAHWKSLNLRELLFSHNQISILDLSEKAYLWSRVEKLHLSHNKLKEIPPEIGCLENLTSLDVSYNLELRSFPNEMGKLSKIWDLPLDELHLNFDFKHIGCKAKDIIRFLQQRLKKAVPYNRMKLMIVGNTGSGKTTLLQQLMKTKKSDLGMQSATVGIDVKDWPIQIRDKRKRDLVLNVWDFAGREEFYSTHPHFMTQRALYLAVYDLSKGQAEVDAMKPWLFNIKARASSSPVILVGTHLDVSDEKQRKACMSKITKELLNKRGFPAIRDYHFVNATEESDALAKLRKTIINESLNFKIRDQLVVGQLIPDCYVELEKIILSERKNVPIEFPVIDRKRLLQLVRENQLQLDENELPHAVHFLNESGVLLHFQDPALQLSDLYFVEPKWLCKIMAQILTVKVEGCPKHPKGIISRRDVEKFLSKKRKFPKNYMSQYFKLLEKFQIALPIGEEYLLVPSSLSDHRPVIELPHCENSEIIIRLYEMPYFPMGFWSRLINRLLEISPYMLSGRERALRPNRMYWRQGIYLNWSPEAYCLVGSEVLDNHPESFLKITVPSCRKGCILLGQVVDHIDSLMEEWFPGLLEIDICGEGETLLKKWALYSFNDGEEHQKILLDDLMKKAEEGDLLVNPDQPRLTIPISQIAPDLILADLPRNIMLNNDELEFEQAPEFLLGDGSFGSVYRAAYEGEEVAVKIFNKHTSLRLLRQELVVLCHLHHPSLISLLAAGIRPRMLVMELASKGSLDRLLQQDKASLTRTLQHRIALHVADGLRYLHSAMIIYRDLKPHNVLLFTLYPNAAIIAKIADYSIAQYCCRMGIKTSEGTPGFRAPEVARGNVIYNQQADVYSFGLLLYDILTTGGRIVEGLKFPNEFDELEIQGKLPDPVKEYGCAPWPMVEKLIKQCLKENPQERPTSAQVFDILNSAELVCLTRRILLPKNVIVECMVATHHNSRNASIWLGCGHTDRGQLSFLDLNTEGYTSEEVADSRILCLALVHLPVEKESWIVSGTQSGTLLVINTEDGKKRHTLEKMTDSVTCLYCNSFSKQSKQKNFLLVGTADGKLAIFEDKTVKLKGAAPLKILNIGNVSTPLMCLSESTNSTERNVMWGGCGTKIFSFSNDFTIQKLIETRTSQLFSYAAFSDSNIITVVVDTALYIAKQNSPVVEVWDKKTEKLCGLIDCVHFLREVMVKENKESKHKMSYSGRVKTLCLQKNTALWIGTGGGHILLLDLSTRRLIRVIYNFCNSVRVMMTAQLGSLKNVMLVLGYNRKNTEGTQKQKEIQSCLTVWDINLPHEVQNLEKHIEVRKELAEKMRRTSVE
Method in brief: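 IC50 derived from luminescent ADP-Glo readout against untreated solvent control, twelve final compound concentrations from 50 μM downward. Reaction: recombinant human LRRK2 G2019S enzyme, 25 μM ATP, substrate, pH 7.4 Tris buffer with MgCl2/BSA/DTT, 25° C. for 2 hours.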

human GST-CLK1 = target: T1, human GST-CLK1 (Homo sapiens, UniProt P49759); assay: GST-CLK1 enzyme inhibition, ADP-Glo kinase assay; details: ATP 10 μM, GST-CLK1 129-end
T1 construct: purified human GST-CLK1 (129-end, SignalChem) enzyme; purchased SignalChem
T1 sequence (P49759 129-484 limits assumed): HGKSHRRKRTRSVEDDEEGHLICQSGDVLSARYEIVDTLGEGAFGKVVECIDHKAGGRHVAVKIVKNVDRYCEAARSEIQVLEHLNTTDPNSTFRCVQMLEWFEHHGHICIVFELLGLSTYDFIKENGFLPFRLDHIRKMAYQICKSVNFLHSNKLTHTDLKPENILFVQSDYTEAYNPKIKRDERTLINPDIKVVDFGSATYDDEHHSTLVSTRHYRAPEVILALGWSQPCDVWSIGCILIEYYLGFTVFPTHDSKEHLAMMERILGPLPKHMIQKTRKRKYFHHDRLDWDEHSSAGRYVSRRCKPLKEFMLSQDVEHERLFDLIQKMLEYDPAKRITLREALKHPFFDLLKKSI
Method in brief: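 ADP-Glo luminescence read-out, relative to untreated solvent control, gave IC50 (nM) from triplicate data sets. Reactions ran an hour at 25° C with 3 ng GST-CLK1 (residues 129-end), 10 μM ATP and specific substrate in Tris-HCl pH 7.4 buffer with MgCl2, BSA and DTT.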

human GST-DYRK1A = target: T2, human GST-DYRK1A (Homo sapiens, UniProt Q13627); assay: GST-DYRK1A enzyme inhibition, ADP-Glo kinase assay; details: ATP 10 μM, GST-DYRK1A full length, read-out: DYRK1 IC50
T2 construct: purified human GST-DYRK1A (full length, Thermo Scientifics) enzyme; purchased Thermo Scientifics
Method in brief: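 Full-length enzyme (10 ng) was incubated with 10 μM ATP and a specific substrate for 1 h at 25 °C in 40 mM Tris-HCl pH 7.4, 20 mM MgCl2, 0.5 mg/mL BSA, 50 μM DTT. Luminescence was read against a solvent control, and IC50 values were derived from 3 data sets.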

LRRK2 = LRRK2 (Homo sapiens, UniProt Q5S007); assay: LRRK2 enzyme inhibition, ADP-Glo kinase assay; parameters: purchased Invitrogen PR8604B; details: ATP 10 μM
LRRK2, sequence (Q5S007 970-2527 limits assumed): as the sequence (Q5S007 970-2527 G2019S limits assumed) above, with S1050G counted along it
Method in brief: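 ADP-Glo luminescent read-out of ADP formed by purified human LRRK2 enzyme (25 ng), 10 μM ATP, 0.2 μg substrate, 25° C for 2 h, Tris-HCl pH 7.4 buffer with MgCl2, BSA, DTT. Inhibition versus untreated solvent control over twelve final concentrations (50 μM downward) gives IC50.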

| IC50 (LRRK2 (G2019S)) [µM] | IC50 (human GST-CLK1) [µM] | IC50 (human GST-DYRK1A) [µM] | IC50 (LRRK2) [µM] | SMILES |
| --- | --- | --- | --- | --- |
| < 0.1 | < 0.1 | 0.101 to 0.3 | < 0.1 | CNc1nc(Nc2ccc(C(=O)N3CCC(N4CCOCC4)CC3)c3c2OCCO3)nc2[nH]cc(C#N)c12 [Example 136, 4-(methylamino)-2-((8-(4-morpholinopiperidine-1-carbonyl)-2,3-dihydrobenzo[b][1,4]dioxin-5-yl)amino)-7H-pyrrolo[2,3-d]pyrimidine-5-carbonitrile] |
| < 0.1 | < 0.1 | 0.101 to 0.3 | < 0.1 | CCNc1nc(Nc2ccc(C(=O)N3CCC(N4CCOCC4)CC3)c3c2OCCO3)nc2[nH]cc(C#N)c12 [Example 137, 4-(ethylamino)-2-((8-(4-morpholinopiperidine-1-carbonyl)-2,3-dihydrobenzo[b][1,4]dioxin-5-yl)amino)-7H-pyrrolo[2,3-d]pyrimidine-5-carbontrile] |
| < 0.1 | < 0.1 | 0.301 to 1 | < 0.1 | N#Cc1c[nH]c2nc(Nc3ccc(C(=O)N4CCC(N5CCOCC5)CC4)c4c3OCCO4)nc(NC3CC3)c12 [Example 141, 4-(cyclopropylamino)-2-((8-(4-morpholinopiperidine-1-carbonyl)-2,3-dihydrobenzo[b][1,4]dioxin-5-yl)amino)-7H-pyrrolo[2,3-d]pyrimidine-5-carbonitrile] |
| < 0.1 | < 0.1 | < 0.1 | < 0.1 | CNc1nc(Nc2ccc(C(=O)N3CCOCC3)c3c2OCCO3)nc2[nH]cc(C(F)(F)F)c12 [Example 155, (8-((4-(methyalmino)-5-(trifluoromethyl)-7H-pyrrolo[2,3-d]pyrimidin-2-yl)amino)-2,3-dihydrobenzo[b][1,4]dioxin-5-yl)(morpholino)methanone 2,2,2-trifluoroacetate] |
| < 0.1 | < 0.1 | 0.101 to 0.3 | < 0.1 | CCNc1nc(Nc2ccc(C(=O)N3CCOCC3)c3c2OCCO3)nc2[nH]cc(C(F)(F)F)c12 [Example 156, (8-((4-(ethylamino)-5-(trifluoromethyl)-7H-pyrrolo[2,3-d]pyrimidin-2-yl)amino)-2,3-dihydrobenzo[b][1,4]dioxin-5-yl)(morpholino)methanone 2,2,2-trifluoroacetate] |
| 0.301 to 1 | 0.301 to 1 | 0.301 to 1 | < 0.1 | CCNc1nc(Nc2ccc(S(C)(=O)=O)cc2OC)nc2[nH]cc(C(F)(F)F)c12 [Example 159, N^4-ethyl-N^2-(2-methoxy-4-(methylsulfonyl)phenyl)-5-(trifluoromethyl)-7H-pyrrolo[2,3-d]pyrimidine-2,4-diamine] |
| < 0.1 | 0.301 to 1 | 0.301 to 1 | < 0.1 | CCCNc1nc(Nc2ccc(C(=O)N3CCOCC3)c3c2OCCO3)nc2[nH]cc(C(F)(F)F)c12 [Example 162, morpholino(8-((4-(propylamino)-5-(trifluoromethyl)-7H-pyrrolo[2,3-d]pyrimidin-2-yl)amino)-2,3-dihydrobenzo[b][1,4]dioxin-5-yl)methanone] |
| < 0.1 | 0.301 to 1 | 0.101 to 0.3 | < 0.1 | CNc1nc(Nc2ccc(S(C)(=O)=O)cc2OC)nc2[nH]cc(C(F)(F)F)c12 [Example 163, N^2-(2-methoxy-4-(methylsulfonyl)phenyl)-N^4-methyl-5-(trifluoromethyl)-7H-pyrrolo[2,3-d]pyrimidine-2,4-diamine] |
| 0.101 to 0.3 | 0.301 to 1 | 0.301 to 1 | < 0.1 | COc1cc(S(C)(=O)=O)ccc1Nc1nc(NC(C)C)c2c(C(F)(F)F)c[nH]c2n1 [Example 166, N^4-isopropyl-N^2-(2-methoxy-4-(methylsulfonyl)-phenyl)-5-(trifluoromethyl)-7H-pyrrolo[2,3-d]pyrimidine-2,4-diamine] |
